In US7192983B2, “N-protected/N-substituted-beta-amino hydroxy sulfonates” (G.D. Searle & Co., priority 1995, dated 2007):

Experiment: Determination of storage stability at ambient temperature (purity by HPLC)
Type: physicochemical
Procedure: 2S-[Bis (phenylmethyl) amino]-1-hydroxy-3-phenylpropyl sulfonic acid, sodium salt (5 grams) was treated with stirring with an aqueous solution of 5 grams of potassium carbonate in 50 mL of water at room temperature. The aqueous solution was extracted once with a 50 mL portion of ethyl acetate. The organic solvent solutions were combined and removed under reduced pressure. The residue was dissolved in the tetrahydrofuran (THF), filtered through a cotton filter plug and the solvent removed under reduced pressure. […] The samples were placed on the column diluted in 90% hexane, 5% isopropanol and 5% tert-butylmethyl ether.
The experiment extended through 61 days with purity determinations made on days 0 (t=0), 3 (t=3), 6 (t=6), 18 (t=18) and 61 (t=61). A sample of the salt was treated with aqueous potassium carbonate and extracted with ethyl acetate on day 0. The ethyl acetate was removed under reduced pressure to provide the aldehyde and this sample was used as a t=0 […] reference standard for the stability determination (“Aldehyde Sample”). The t=0 sample of the aldehyde was then stored at ambient temperature in a capped, brown glass bottle side by side with the stored sample of the salt. The purity of the salt was then measured on days 3 (t=3), 8 (t=8), 15 (t=15) and 21 (t=21).

O=C[C@H](Cc1ccccc1)N(Cc1ccccc1)Cc1ccccc1 [Aldehyde Sample, 2S-[bis(phenylmethyl)amino]-3-phenylpropanal]
% aldehyde remaining (day 8, stored at ambient temperature in capped brown glass bottle): 64%
% aldehyde remaining (day 15, stored at ambient temperature in capped brown glass bottle): 23%
% aldehyde remaining (day 18, stored at ambient temperature in capped brown glass bottle): 10%
